{
  "source": "patent US20230047788A1",
  "about": "“COMPOSITIONS COMPRISING 5-CHOLESTEN-3, 25-DIOL, 3-SULFATE (25HC3S) OR PHARMACEUTICALLY ACCEPTABLE SALT THEREOF AND AT LEAST ONE CYCLIC OLIGOSACCHARIDE” (Virginia Commonwealth University, priority 2016, published 2023)",
  "key": {"[1]": {"assay": "Solubility of 25HC3S in alpha-, beta- and gamma-cyclodextrin, 10 mM phosphate buffer pH 7.4", "assay_type": "physicochemical", "conditions": "for repeated solubility of 25HC3S: repeated experiment", "experimental": "The solubility of 25HC3S at ambient room temperature for one day in 5 and 10% (w/v) alpha cyclodextrin (α-CD), 1% (w/v) beta cyclodextrin (β-CD) and 5 and 10% (w/v) gamma cyclodextrin (γ-CD), each containing 10 mM phosphate buffer at pH 7.4 was determined by an HPLC method.\nα-CD, β-CD and γ-CD were used in the study. Sodium phosphate monobasic, monohydrate and sodium phosphate, dibasic, anhydrous were used to prepare 10 mM phosphate buffer at pH 7.4.\nApproximately 30 to 50 mg of 25HC3S was weighed into a 20 mL vial (5 vials total, one vial for each vehicle). Approximately 8 mL each of 5 and 10% (w/v) α-CD, 1% (w/v) β-CD, and 5 and 10% (w/v) γ-CD containing 10 mM phosphate buffer at pH 7.4 was added to each vial, respectively. The samples were sonicated and vortexed to disperse the drug. The drug suspensions in these 5 vials were stirred at 500 rpm at ambient RT (20.0-22.2° C.). On day 1, approximately 1.2 mL each of the suspensions was transferred into 2 mL conical vials (a total of 5 vials for each suspension) and centrifuged at 12,000 rpm for 10 min. Approximately 1 mL of the supernatant from each suspension (prior to filtration) was used for HPLC analysis. The supernatants for the rest of the vials from the same suspension were combined together and filtered through […], 13 mm in diameter Acrodisk syringe filter with Nylon membrane. The first 2-mL of filtrate was discarded. The next 2 consecutive filtrates of 0.5-0.7 mL each were collected into HPLC vials for analysis."}, "[2]": {"system": "GI-ARS model (partial shielding irradiation)", "assay": "Clinical signs and survival in rodent model of gastrointestinal acute radiation syndrome (GI-ARS)", "assay_type": "in vivo, C57BL/6J mice", "experimental": "The subjects for the two studies outlined here were (A) Study 1: 20 male C57BL/6J mice (8 weeks of age; 23-28 g) and (B) Study 2: 16 male C57BL/6J mice (8 weeks of age; 23-28 g). Following arrival, all animals were subjected to a health assessment and evaluation was performed in accordance with the standard operating procedures and by technical staff working under the supervision of the clinical veterinarian. An acclimation period of at least 11 days was allowed between receipt of the animals and irradiation to accustom the animals to the laboratory environment.\nA solution formulation of 25HC3S sodium salt and its respective vehicle was used for the study. The Vehicle was a solution of 4% (w/v) hydroxypropyl betadex in 75% (v/v) of 0.9% (w/v) sodium chloride and 25% (v/v) sterile water. 25HC3S sodium salt was pre-dissolved into the Vehicle solution to result in a drug concentration of 5 mg/mL. The 25HC3S solution was ready-to-use at the start of dosing. In Study 1, the vehicle was stored at 2-8° C. whereas the 25HC3S solution was stored at room temperature prior and throughout the study duration; in Study 2, both vehicle and 25HC3S solutions were stored at 2-8° C.\nPartial shielding irradiation (PSI) exposure at a high radiation dose (>10Gy) is an established approach to mimic GI-ARS in mice. Animals were exposed to whole-body irradiation with partial shielding (Day 0) in a custom designed restrainer where their left pelvic limb was extended and maintained in position with an elastic band. The left pelvic limb was shielded with a cerrobend structure. Animals received a whole body irradiation dose with partial shielding of 15.78 Gy (LD50/22) for Study 1 whereas mice were exposed to 15.16 Gy (LD25/22) in Study 2. The dose rate of the ^60Co gamma source was fixed at approximately 60 cGy per minute. The in-life portion of both the studies after PSI was 22 days.\nStudy 1: Mice (N=20/group) were administered once daily with 25HC3S (or vehicle) for 7 consecutive days starting on the day following irradiation (Day 1) by subcutaneous injection between scapulas using a 27G needle attached to a syringe. The dose volume was 10 mL/kg for all dose routes and the dose was adjusted based on the most recent body weight. Study 2: Mice (N=16/group) were administered with 25HC3S (or vehicle) for a total of […]. Animals were given drug (or vehicle) once on the day following irradiation (Day 1) and once on Day 4 by subcutaneous injection between scapulas using a 27G needle attached to a syringe. The dose volume was 10 mL/kg for all dose routes and the dose was adjusted based on the most recent body weight.\nMortality checks were recorded concomitantly with the cage-side observations, during all phases of the study. Mortality checks for all animals were also recorded at least once during the night from Day 5 through Day 8. Clinical signs (ill health, behavioral changes, fur color/consistency changes etc.) were also recorded on all surviving animals twice daily throughout observation period (described in Table 10). Additional clinical observations were performed when deemed necessary. All observations were recorded as cage side clinical signs or detailed clinical examination when possible. A detailed clinical examination was performed on each animal at least as follows: prior to animal assignment, one day prior to irradiation (Day −1) then every 3 days throughout the observation period. […]"}},
  "note": "Several values for one entry are separate records, joined by “and”; a condition that tells them apart may be missing. Identical values can stand only once.",
  "data": [
    {"smiles": "C[C@H](CCCC(C)(C)O)[C@H]1CC[C@H]2[C@@H]3CC=C4C[C@@H](OS(=O)(=O)[O-])CC[C@]4(C)[C@H]3CC[C@]12C.[Na+]", "note": "[25HC3S, 5-cholesten-3, 25-diol, 3-sulfate]", "values": [
      {"measurement": "25HC3S Solubility", "setting": "[1]; 0 cyclodextrin, 10 mM phosphate pH 7.4, room temperature", "value": "6 μg/mL and 0.012 mM"},
      {"measurement": "25HC3S Solubility", "setting": "[1]; 1% (w/v) beta-CD", "value": 4.314, "unit": "mM"},
      {"measurement": "Complexation with CD", "setting": "[1]; 1% (w/v) beta-CD", "value": "yes"},
      {"measurement": "Ratio of CD/25HC3S", "setting": "[1]; 1% (w/v) beta-CD", "value": 2, "unit": "mM/mM"},
      {"measurement": "25HC3S Solubility", "setting": "[1]; 1% (w/v) beta-CD (10 mg/mL), 10 mM phosphate pH 7.4, RT, one day", "value": 2177.4, "unit": "µg/mL"},
      {"measurement": "25HC3S Solubility", "setting": "[1]; 5% (w/v) alpha-CD", "value": 0.065, "unit": "mM"},
      {"measurement": "Complexation with CD", "setting": "[1]; 5% (w/v) alpha-CD", "value": "no"},
      {"measurement": "Ratio of CD/25HC3S", "setting": "[1]; 5% (w/v) alpha-CD", "value": 791, "unit": "mM/mM"},
      {"measurement": "25HC3S Solubility", "setting": "[1]; 5% (w/v) alpha-CD (50 mg/mL), 10 mM phosphate pH 7.4, RT, one day", "value": 32.9, "unit": "µg/mL"},
      {"measurement": "25HC3S Solubility", "setting": "[1]; 5% (w/v) gamma-CD", "value": 1.118, "unit": "mM"},
      {"measurement": "Complexation with CD", "setting": "[1]; 5% (w/v) gamma-CD", "value": "no"},
      {"measurement": "Ratio of CD/25HC3S", "setting": "[1]; 5% (w/v) gamma-CD", "value": 34, "unit": "mM/mM"},
      {"measurement": "25HC3S Solubility", "setting": "[1]; 5% (w/v) gamma-CD (50 mg/mL), 10 mM phosphate pH 7.4, RT, one day", "value": 564.4, "unit": "µg/mL"},
      {"measurement": "repeated solubility of 25HC3S", "setting": "[1]; 5% (w/v) γ-CD", "value": 292.4, "unit": "µg/mL"},
      {"measurement": "25HC3S Solubility", "setting": "[1]; 10% (w/v) alpha-CD", "value": 0.089, "unit": "mM"},
      {"measurement": "Complexation with CD", "setting": "[1]; 10% (w/v) alpha-CD", "value": "no"},
      {"measurement": "Ratio of CD/25HC3S", "setting": "[1]; 10% (w/v) alpha-CD", "value": 1155, "unit": "mM/mM"},
      {"measurement": "25HC3S Solubility", "setting": "[1]; 10% (w/v) alpha-CD (100 mg/mL), 10 mM phosphate pH 7.4, RT, one day", "value": 45, "unit": "µg/mL"},
      {"measurement": "25HC3S Solubility", "setting": "[1]; 10% (w/v) gamma-CD", "value": 0.301, "unit": "mM"},
      {"measurement": "Complexation with CD", "setting": "[1]; 10% (w/v) gamma-CD", "value": "no"},
      {"measurement": "Ratio of CD/25HC3S", "setting": "[1]; 10% (w/v) gamma-CD", "value": 256, "unit": "mM/mM"},
      {"measurement": "25HC3S Solubility", "setting": "[1]; 10% (w/v) gamma-CD (100 mg/mL), 10 mM phosphate pH 7.4, RT, one day", "value": 152.1, "unit": "µg/mL"},
      {"measurement": "repeated solubility of 25HC3S", "setting": "[1]; 10% (w/v) γ-CD", "value": 98.2, "unit": "µg/mL"},
      {"measurement": "Survival", "setting": "[2]; Study 1, 15.78 Gy, by Day 7", "value": 45, "unit": "%"},
      {"measurement": "mortality, treatment vs vehicle group", "setting": "[2]; Study 1, 15.78 Gy, sc once daily for 7 days from Day 1", "value": "not significant"},
      {"measurement": "average number of clinical signs/mice vs vehicle-treated group", "setting": "[2]; Study 1, Days 5-22, animals that survived the entire in-life portion", "value": "statistically lower"},
      {"measurement": "Survival improved by (vs vehicle)", "setting": "[2]; Study 2, 15.16 Gy", "value": 18.75, "unit": "%"},
      {"measurement": "Survival", "setting": "[2]; Study 2, 15.16 Gy, sc doses on Day 1 and Day 4, 50 mg/kg/dose", "value": 81.25, "unit": "%"}
    ]}
  ]
}
